# Biological target: T1, Tyrosine-protein phosphatase non-receptor type 1 (Homo sapiens, UniProt P18031)
# T1 sequence (P18031 whole entry): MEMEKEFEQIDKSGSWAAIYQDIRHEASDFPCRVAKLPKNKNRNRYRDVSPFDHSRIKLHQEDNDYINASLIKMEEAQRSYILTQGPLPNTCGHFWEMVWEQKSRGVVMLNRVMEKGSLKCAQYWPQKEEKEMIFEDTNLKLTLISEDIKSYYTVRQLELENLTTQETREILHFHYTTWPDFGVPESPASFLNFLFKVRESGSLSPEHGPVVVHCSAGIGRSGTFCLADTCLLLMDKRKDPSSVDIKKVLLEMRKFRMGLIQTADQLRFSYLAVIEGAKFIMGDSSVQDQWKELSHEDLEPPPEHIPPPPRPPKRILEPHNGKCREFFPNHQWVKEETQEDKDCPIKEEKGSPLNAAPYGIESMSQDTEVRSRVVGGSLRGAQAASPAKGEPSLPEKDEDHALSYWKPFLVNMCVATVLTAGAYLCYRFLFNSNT
# Assay: Inhibition of human recombinant PTP1B after 30 mins
row,SMILES,IC50 [µM]
1,C[C@@]1(CO)CC[C@]2(C(=O)O)CC[C@]3(C)C(=CC[C@@H]4[C@@]5(C)CC[C@@H](O)[C@](C)(CO)[C@@H]5CC[C@]43C)[C@@H]2C1,> 30
2,C[C@@H]1CC[C@]2(C(=O)O)CC[C@]3(C)C(=CC[C@@H]4[C@@]5(C)CC[C@@H](O)[C@](C)(CO)[C@@H]5CC[C@]43C)[C@@H]2[C@]1(C)O [BARBINERVIC ACID],> 30
3,C[C@H]1[C@H](C)CC[C@]2(C(=O)O)CC[C@]3(C)C(=CC[C@@H]4[C@@]5(C)CC[C@H](O)[C@](C)(CO)[C@@H]5CC[C@]43C)[C@H]12,12.8
4,C=C1CC[C@]2(C(=O)O)CC[C@]3(C)C(=CC[C@@H]4[C@@]5(C)CC[C@@H](O)[C@](C)(C(=O)O)[C@@H]5CC[C@]43C)[C@@H]2[C@]1(C)O [DIOSPYRIC ACID A],> 30
5,C=C1CC[C@]2(C(=O)O)CC[C@]3(C)C(=CC[C@@H]4[C@@]5(C)CC[C@@H](O)[C@](C)(CO)[C@@H]5CC[C@]43C)[C@@H]2[C@]1(C)O [COUSSARIC ACID],> 30
6,C[C@@H]1CC[C@]2(C(=O)O)CC[C@]3(C)C(=CC[C@@H]4[C@@]5(C)CCC(=O)[C@](C)(CO)[C@@H]5CC[C@]43C)[C@@H]2[C@]1(C)O,8.1
7,C[C@H]1[C@H](C)CC[C@]2(C(=O)O)CC[C@]3(C)C(=CC[C@@H]4[C@@]5(C)CC[C@@H](O)[C@](C)(CO)[C@@H]5CC[C@]43C)[C@H]12,> 30
8,CCCCCCCCCCCCCCCC(=O)C1=C(O)[C@@H](CO)OC1=O,4.1
9,C[C@@H]1CC[C@]2(C(=O)O)CC[C@]3(C)C(=CC[C@@H]4[C@@]5(C)CC[C@@H](O)[C@](C)(C(=O)O)[C@@H]5CC[C@]43C)[C@@H]2[C@]1(C)O [DIOSPYRIC ACID B],> 30

# Now from value to molecule:
row,IC50 [µM],SMILES
1,18.8,CC1(C)CC[C@]2(C(=O)O)CC[C@]3(C)C(=CC[C@@H]4[C@@]5(C)CC[C@H](O)[C@](C)(CO)[C@@H]5CC[C@]43C)[C@@H]2[C@@H]1O [SPATHODIC ACID]
2,10.9,C[C@@H]1CC[C@]2(C(=O)O)CC[C@]3(C)C(=CC[C@@H]4[C@@]5(C)CC[C@H](O)[C@](C)(CO)[C@@H]5CC[C@]43C)[C@@H]2[C@]1(C)O [ROTUNGENIC ACID]
3,3.9,C[C@@H]1CC[C@]2(C(=O)O)CC[C@]3(C)C(=CC[C@@H]4[C@@]5(C)CC[C@H](O)C(C)(C)[C@@H]5CC[C@]43C)[C@@H]2[C@]1(C)O [POMOLIC ACID]
4,> 30,CC1(C)CC[C@]2(C(=O)O)CC[C@]3(C)C(=CC[C@@H]4[C@@]5(C)CC[C@@H](O)[C@](C)(CO)[C@@H]5CC[C@]43C)[C@@H]2C1 [SCUTELLARIC ACID]
5,3.5,CC1(C)CC[C@]2(C(=O)O)CC[C@]3(C)C(=CC[C@@H]4[C@@]5(C)CCC(=O)C(C)(C)[C@@H]5CC[C@]43C)[C@@H]2C1 [OLEANONIC ACID]
